The values that follow come from ChEMBL document CHEMBL2073748, “Na(+)-dependent carnitine transport by organic cation transporter (OCTN2): its pharmacological and toxicological relevance” (J Pharmacol Exp Ther, 1999).

For series [1], the target named is T1, OCTN2 (organic cation/carnitine transporter 2) (Homo sapiens, UniProt O76082).
T1 sequence (O76082 whole entry): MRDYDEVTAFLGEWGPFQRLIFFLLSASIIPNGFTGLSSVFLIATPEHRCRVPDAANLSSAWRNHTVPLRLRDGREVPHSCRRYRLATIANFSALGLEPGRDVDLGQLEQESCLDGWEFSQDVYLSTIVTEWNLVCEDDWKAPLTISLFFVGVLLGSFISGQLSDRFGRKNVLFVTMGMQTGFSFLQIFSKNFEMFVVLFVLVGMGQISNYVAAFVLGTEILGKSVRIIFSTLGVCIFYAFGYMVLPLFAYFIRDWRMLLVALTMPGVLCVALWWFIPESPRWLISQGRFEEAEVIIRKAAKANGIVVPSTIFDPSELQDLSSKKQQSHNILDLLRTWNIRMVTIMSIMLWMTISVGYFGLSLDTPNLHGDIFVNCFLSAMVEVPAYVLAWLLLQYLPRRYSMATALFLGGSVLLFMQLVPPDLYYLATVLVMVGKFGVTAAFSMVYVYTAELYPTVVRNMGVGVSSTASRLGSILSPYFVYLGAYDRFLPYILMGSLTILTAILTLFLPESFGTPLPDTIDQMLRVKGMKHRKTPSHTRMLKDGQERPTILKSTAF
Briefly: TP_TRANSPORTER: inhibition of Carnitine uptake (Carnitine: 0.010? uM, Quinine: 500 uM) in OCTN2-expressing HEK293 cells. The class given is functional, cell-based. Set-up: scale not given: the % may be the effect or the level left. Particulars: HEK293 cells that express OCTN2, probe Carnitine, read-out: Activity.

Series [2] deals with T2, Organic cation/carnitine transporter 2 (Homo sapiens, UniProt O76082).
T2 sequence (O76082 whole entry): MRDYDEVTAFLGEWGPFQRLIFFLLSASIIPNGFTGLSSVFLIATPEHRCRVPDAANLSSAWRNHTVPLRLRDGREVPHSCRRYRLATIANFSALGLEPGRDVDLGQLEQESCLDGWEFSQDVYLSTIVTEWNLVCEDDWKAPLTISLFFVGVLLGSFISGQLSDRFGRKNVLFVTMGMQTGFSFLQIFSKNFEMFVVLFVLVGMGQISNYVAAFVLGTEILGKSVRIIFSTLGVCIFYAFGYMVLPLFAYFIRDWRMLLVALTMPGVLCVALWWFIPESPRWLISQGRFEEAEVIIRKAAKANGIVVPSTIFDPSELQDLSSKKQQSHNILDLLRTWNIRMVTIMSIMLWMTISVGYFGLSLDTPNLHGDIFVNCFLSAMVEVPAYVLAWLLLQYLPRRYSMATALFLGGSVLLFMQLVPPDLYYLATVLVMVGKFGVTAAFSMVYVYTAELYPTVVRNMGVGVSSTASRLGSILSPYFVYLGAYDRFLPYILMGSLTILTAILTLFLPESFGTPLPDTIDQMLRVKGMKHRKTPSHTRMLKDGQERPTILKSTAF
The experiment in a line: TP_TRANSPORTER: uptake in OCTN2-expressing HEK293 cells. Format: functional, cell-based.

Series [3] concerns the target T1, OCTN2 (organic cation/carnitine transporter 2). Briefly: TP_TRANSPORTER: inhibition of Carnitine uptake (Carnitine: 0.010? uM, Verapamil: 500 uM) in OCTN2-expressing HEK293 cells. Particulars: HEK293 cells that express OCTN2, probe Carnitine, read-out: Activity. Format: functional, cell-based. Set-up: scale not given: the % may be the effect or the level left.
Series [4] addresses T2, Organic cation/carnitine transporter 2. The experiment in a line: TP_TRANSPORTER: inhibition of Carnitine uptake (Carnitine: 0.010? uM, Arginine: 500 uM) in OCTN2-expressing HEK293 cells. Format: functional, cell-based. Particulars: hek293, 500 µM.
The target of series [5] is T1, OCTN2 (organic cation/carnitine transporter 2). The experiment in a line: TP_TRANSPORTER: inhibition of Carnitine uptake (Carnitine: 0.010? uM, LFLX: 500 uM) in OCTN2-expressing HEK293 cells. On the set-up: scale not given: the % may be the effect or the level left. Format: functional, cell-based. The note with it: HEK293 cells that express OCTN2, probe Carnitine, read-out: Activity.

The target of series [6] is T2, Organic cation/carnitine transporter 2. Briefly: TP_TRANSPORTER: inhibition of Carnitine uptake (Carnitine: 0.010? uM, Creatine: 500 uM) in OCTN2-expressing HEK293 cells. Format: functional, cell-based. The note with it: hek293, 500 µM.
For series [7], the target named is T1, OCTN2 (organic cation/carnitine transporter 2). The experiment in a line: TP_TRANSPORTER: inhibition of Carnitine uptake (Carnitine: 0.010? uM, Trimethyllysine: 500 uM) in OCTN2-expressing HEK293 cells. Format: functional, cell-based. Set-up: scale not given: the % may be the effect or the level left. Particulars: HEK293 cells that express OCTN2, probe Carnitine, read-out: Activity.

Series [8] has the same target. The experiment in a line: in vitro. Particulars: HEK293 cells that express OCTN2, probe Carnitine.
Description: TP_TRANSPORTER: inhibition of Carnitine uptake (Carnitine: 0.010? uM, Nicotine: 500 uM) in OCTN2-expressing HEK293 cells
For series [9] the target is unchanged. Briefly: TP_TRANSPORTER: inhibition of Carnitine uptake (Carnitine: 0.010? uM, OFLX: 500 uM) in OCTN2-expressing HEK293 cells. Set-up: scale not given: the % may be the effect or the level left. The note with it: HEK293 cells that express OCTN2, probe Carnitine, read-out: Activity. The class given is functional, cell-based.
For series [10], the target named is T2, Organic cation/carnitine transporter 2. The experiment in a line: TP_TRANSPORTER: inhibition of Carnitine uptake (Carnitine: 0.010? uM, AZT: 500 uM) in OCTN2-expressing HEK293 cells. The class given is functional, cell-based. The note with it: hek293, 500 µM.
Series [11] concerns the target T1, OCTN2 (organic cation/carnitine transporter 2). The experiment in a line: TP_TRANSPORTER: inhibition of Carnitine uptake (Carnitine: 0.010? uM, Procainamide: 500 uM) in OCTN2-expressing HEK293 cells. Format: functional, cell-based. On the set-up: scale not given: the % may be the effect or the level left. The note with it: HEK293 cells that express OCTN2, probe Carnitine, read-out: Activity.

Series [12] deals with T2, Organic cation/carnitine transporter 2. Briefly: TP_TRANSPORTER: inhibition of Carnitine uptake (Carnitine: 0.010? uM, Furosemide: 500 uM) in OCTN2-expressing HEK293 cells. The class given is functional, cell-based. Particulars: hek293, 500 µM.
The target of series [13] is T1, OCTN2 (organic cation/carnitine transporter 2). The experiment in a line: TP_TRANSPORTER: inhibition of Carnitine uptake (Carnitine: 0.010? uM, Cefsulodin: 500 uM) in OCTN2-expressing HEK293 cells. The class given is functional, cell-based. Set-up: scale not given: the % may be the effect or the level left. Particulars: HEK293 cells that express OCTN2, probe Carnitine, read-out: Activity.

The target is the same in series [14]. The experiment in a line: in vitro. The note with it: HEK293 cells that express OCTN2, probe Carnitine. The source holds these as a separate data set.
Description: TP_TRANSPORTER: inhibition of Carnitine uptake (Carnitine: 0.010? uM, TEA: 500 uM) in OCTN2-expressing HEK293 cells
For series [15] the target is unchanged. The experiment in a line: TP_TRANSPORTER: inhibition of Carnitine uptake (Carnitine: 0.010? uM, Actinomycin D: 100 uM) in OCTN2-expressing HEK293 cells. The class given is functional, cell-based. The note with it: HEK293 cells that express OCTN2, probe Carnitine, read-out: Activity. Set-up: scale not given: the % may be the effect or the level left.
The target is the same in series [16]. The experiment in a line: TP_TRANSPORTER: inhibition of Carnitine uptake (Carnitine: 0.010? uM, MPP+: 100 uM) in OCTN2-expressing HEK293 cells. The class given is functional, cell-based. Set-up: scale not given: the % may be the effect or the level left. Particulars: HEK293 cells that express OCTN2, probe Carnitine, read-out: Activity.

Starred links: 1 amine or outer side, 2 acyl side, 3 side chain; linkers in the order of their positions; H or OH if unused. Positions of bridges follow the written chain, without caps; N, C: chain ends. Non-standard residues stand in square brackets, D forms with d. Residues, ends and D or L forms follow the SMILES beside them. Chains are numbered I, II in the order given. Actinocin(9to1) = Cc1c2oc3c(C)ccc(C(=O)[*:1])c3nc-2c(C(=O)[*:2])c(N)c1=O; NMeV = CN[C@H](C(=O)O)C(C)C; Sar = CNCC(=O)O

Take `C=C[C@H]1C[N@@]2CC[C@H]1C[C@H]2[C@H](O)c1ccnc2ccc(OC)cc12` [QUININE]: the activity at 500 µM in series [1] stood at 7.1%.

For the compound `COc1ccc(CCN(C)CCCC(C#N)(c2ccc(OC)c(OC)c2)C(C)C)cc1OC` (centres undefined) [VERAPAMIL], in series [2], the Activity entry was “substrate [+]”. Further, in [3], the activity at 500 µM is 2.4%. On to `N=C(N)NCCC[C@H](N)C(=O)O` [ARGININE], for which the Activity entry in series [4] was “is not an inhibitor [-]”.

Turning to `CCn1cc(C(=O)O)c(=O)c2cc(F)c(N3CCNC(C)C3)c(F)c21` (centres undefined) [LOMEFLOXACIN], the activity at 500 µM in series [5] is 88.6%.

As for `CN(CC(=O)O)C(=N)N` [CREATINE], the Activity entry in series [6] was “is not an inhibitor [-]”. Turning to `C[N+](C)(C)CCCC[C@H](N)C(=O)O` [TRIMETHYLLYSINE], the activity at 500 µM in [7] was 69%.

In turn, `CN1CCC[C@H]1c1cccnc1` [NICOTINE] came in with an activity at 500 µM in [8] of 82.6%. `CC1COc2c(N3CCN(C)CC3)c(F)cc3c(=O)c(C(=O)O)cn1c23` (centres undefined) [OFLOXACIN]: in [9], the activity at 500 µM came to 76.8%.

As for `Cc1cn([C@H]2C[C@H](N=[N+]=[N-])[C@@H](CO)O2)c(=O)[nH]c1=O` [ZIDOVUDINE], the Activity result in [10] was “is not an inhibitor [-]”. For `CCN(CC)CCNC(=O)c1ccc(N)cc1` [PROCAINAMIDE], in series [11], the activity at 500 µM was found to be 65.8%. Take `NS(=O)(=O)c1cc(C(=O)O)c(NCc2ccco2)cc1Cl` [FUROSEMIDE]: the Activity entry in series [12] was “is not an inhibitor [-]”. For `NC(=O)c1cc[n+](CC2=C(C(=O)O)N3C(=O)[C@@H](NC(=O)[C@@H](c4ccccc4)S(=O)(=O)[O-])[C@H]3SC2)cc1` [CEFSULODIN], in series [13], the activity at 500 µM was determined as 32.8%. Consider `CC[N+](CC)(CC)CC` [TETRYLAMMONIUM], for which, in series [2], the Activity result is “substrate [+]”. The compound also returned an activity at 500 µM in series [14] of 53.6%.

`Cc1c2oc3c(C)ccc(C(=O)N[C@@H]4C(=O)N[C@H](C(C)C)C(=O)N5CCC[C@H]5C(=O)N(C)CC(=O)N(C)[C@@H](C(C)C)C(=O)O[C@@H]4C)c3nc-2c(C(=O)N[C@@H]2C(=O)N[C@H](C(C)C)C(=O)N3CCC[C@H]3C(=O)N(C)CC(=O)N(C)[C@@H](C(C)C)C(=O)O[C@@H]2C)c(N)c1=O` [DACTINOMYCIN] (I: T[dV]P[Sar][NMeV] / II: T[dV]P[Sar][NMeV]; ester I:1-I:C, II:1-II:C; linker I:N-II:N via Actinocin(9to1)): the Activity result in [2] is “is not a substrate [-]”. Further, the activity at 100 µM in series [15] was determined as 69%. For `C[n+]1ccc(-c2ccccc2)cc1`, in series [2], the Activity entry was “is not a substrate [-]”. The activity at 100 µM in [16] is 69.8%.
